Experiments:
Stromelysin-1 = Stromelysin-1 (Homo sapiens, UniProt P08254); assay: Inhibition of human fibroblast stromelysin, matrix metalloprotease-3
Interstitial collagenase = molecular target: T1, Interstitial collagenase (Homo sapiens, UniProt P03956); assay: Inhibition of human fibroblast collagenase, matrix metalloprotease-1
T1 sequence (P03956 whole entry): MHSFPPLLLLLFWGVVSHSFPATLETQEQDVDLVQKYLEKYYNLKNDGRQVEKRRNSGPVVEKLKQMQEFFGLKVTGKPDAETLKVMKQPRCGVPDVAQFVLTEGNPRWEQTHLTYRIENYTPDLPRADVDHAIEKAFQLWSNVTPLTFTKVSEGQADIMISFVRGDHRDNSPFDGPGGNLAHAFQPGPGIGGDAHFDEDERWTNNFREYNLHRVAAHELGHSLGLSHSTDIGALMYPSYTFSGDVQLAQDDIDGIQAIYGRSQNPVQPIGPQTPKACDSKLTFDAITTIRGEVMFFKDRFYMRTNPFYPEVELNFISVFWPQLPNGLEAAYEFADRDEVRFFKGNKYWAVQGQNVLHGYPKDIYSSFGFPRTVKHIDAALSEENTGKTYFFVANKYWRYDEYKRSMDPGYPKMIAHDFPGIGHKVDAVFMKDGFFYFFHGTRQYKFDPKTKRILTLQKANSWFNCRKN

Matrilysin = molecular target: T2, Matrilysin (Homo sapiens, UniProt P09237); assay: Inhibition of matrilysin, matrix metalloprotease-7
T2 sequence (P09237 whole entry): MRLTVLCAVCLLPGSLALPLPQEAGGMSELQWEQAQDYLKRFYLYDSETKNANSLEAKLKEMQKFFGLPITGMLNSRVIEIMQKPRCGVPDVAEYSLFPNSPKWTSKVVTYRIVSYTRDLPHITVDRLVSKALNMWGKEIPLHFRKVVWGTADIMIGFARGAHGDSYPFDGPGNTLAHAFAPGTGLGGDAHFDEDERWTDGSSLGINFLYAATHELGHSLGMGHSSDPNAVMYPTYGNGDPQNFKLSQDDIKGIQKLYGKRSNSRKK

Chain of Stromelysin-1 (P08254 whole entry): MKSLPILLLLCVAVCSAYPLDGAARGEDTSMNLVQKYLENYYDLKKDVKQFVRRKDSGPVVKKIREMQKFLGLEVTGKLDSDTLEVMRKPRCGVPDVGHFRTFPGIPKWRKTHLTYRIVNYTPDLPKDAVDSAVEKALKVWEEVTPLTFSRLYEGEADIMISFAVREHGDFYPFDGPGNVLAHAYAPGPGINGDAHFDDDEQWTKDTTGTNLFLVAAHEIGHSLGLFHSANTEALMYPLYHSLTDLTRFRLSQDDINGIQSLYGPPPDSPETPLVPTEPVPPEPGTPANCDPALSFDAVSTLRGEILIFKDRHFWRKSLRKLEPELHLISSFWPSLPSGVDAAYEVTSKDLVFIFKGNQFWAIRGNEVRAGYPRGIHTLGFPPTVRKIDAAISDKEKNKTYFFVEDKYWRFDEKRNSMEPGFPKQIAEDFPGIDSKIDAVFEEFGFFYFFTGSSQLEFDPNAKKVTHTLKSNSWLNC

COc1ccc2nc([C@H](CC(C)C)NC(=O)[C@@H](CC(=O)NO)CC(C)C)[nH]c2c1
IC50 (Stromelysin-1): 30 nM | IC50 (Interstitial collagenase): 6 nM | IC50 (Matrilysin): 10 nM

COC(=O)c1ccc(NC(=O)[C@H](CC(C)C)NC(=O)[C@@H](CC(=O)NO)CC(C)C)cc1
IC50 (Stromelysin-1): 0.8 nM | IC50 (Interstitial collagenase): 6.9 nM | IC50 (Matrilysin): 0.23 nM

CC(C)C[C@H](CC(=O)NO)C(=O)N[C@@H](CC(C)C)c1nc2cc(C(F)(F)F)ccc2[nH]1
IC50 (Stromelysin-1): 20 nM | IC50 (Interstitial collagenase): 7 nM | IC50 (Matrilysin): 10 nM

COC(=O)c1[nH]c([C@H](CC(C)C)NC(=O)[C@@H](CC(=O)NO)CC(C)C)nc1-c1ccccc1
IC50 (Stromelysin-1): 320 nM | IC50 (Interstitial collagenase): 3500 nM | IC50 (Matrilysin): 70 nM

CC(C)C[C@H](CC(=O)NO)C(=O)N[C@@H](CC(C)C)c1nc2ccccc2[nH]1
IC50 (Stromelysin-1): 8 nM | IC50 (Interstitial collagenase): 29 nM | IC50 (Matrilysin): 2 nM

CC(C)C[C@H](CC(=O)NO)C(=O)N[C@@H](CC(C)C)c1ncc[nH]1
IC50 (Stromelysin-1): 320 nM | IC50 (Interstitial collagenase): 9 nM | IC50 (Matrilysin): 50 nM

CC(C)C[C@H](CC(=O)NO)C(=O)N[C@@H](CC(C)C)c1nc(-c2ccccc2)c[nH]1
IC50 (Stromelysin-1): 112 nM | IC50 (Interstitial collagenase): 170 nM | IC50 (Matrilysin): 1 nM

COC(=O)c1ccc2nc([C@H](CC(C)C)NC(=O)[C@@H](CC(=O)NO)CC(C)C)[nH]c2c1
IC50 (Stromelysin-1): 5 nM | IC50 (Interstitial collagenase): 3 nM | IC50 (Matrilysin): 1 nM

CC(C)C[C@H](CC(=O)NO)C(=O)N[C@@H](Cc1c[nH]c2ccccc12)c1nc2ccccc2[nH]1
IC50 (Stromelysin-1): 29 nM | IC50 (Interstitial collagenase): 22 nM | IC50 (Matrilysin): 10 nM

CC(C)C[C@H](NC(=O)[C@@H](CC(=O)NO)C1CCCCC1)c1nc(-c2ccccc2)c[nH]1
IC50 (Stromelysin-1): 5900 nM | IC50 (Interstitial collagenase): 480 nM | IC50 (Matrilysin): 3.1 nM

CC(C)C[C@H](CC(=O)NO)C(=O)N[C@@H](CC(C)C)c1nc2cc(Cl)c(Cl)cc2[nH]1
IC50 (Stromelysin-1): 68 nM | IC50 (Interstitial collagenase): 40 nM | IC50 (Matrilysin): 33 nM

CC(C)C[C@H](CC(=O)NO)C(=O)N[C@@H](Cc1c[nH]c2ccccc12)c1ncc[nH]1
IC50 (Stromelysin-1): 280 nM | IC50 (Interstitial collagenase): 18 nM | IC50 (Matrilysin): 18 nM

From ChEMBL document CHEMBL1149961, “Design, synthesis, activity, and structure of a novel class of matrix metalloproteinase inhibitors containing a heterocyclic P2-P3 amide bond isostere” (Bioorg Med Chem Lett, 1996)
